Where a SMILES comes first, the peptide text is derived from it. [ ]: non-standard residue; d: D form. The star is where a group is joined. Phe(4-F) = N[C@@H](Cc1ccc(F)cc1)C(=O)O; 2Nal = N[C@@H](Cc1ccc2ccccc2c1)C(=O)O; Cyclohexanecarbonyl = O=C(C1CCCCC1)*; Cha = N[C@@H](CC1CCCCC1)C(=O)O; Isobutyryl = CC(C)C(=O)*; Nle = CCCC[C@H](N)C(=O)O; Aib = CC(C)(N)C(=O)O; Bz = O=C(c1ccccc1)*
What was measured:
human Y2R [1] = target: T1, human Y2R (Homo sapiens, UniProt P49146); assay: biochemical; assay type: binding
T1 sequence (P49146 1-381): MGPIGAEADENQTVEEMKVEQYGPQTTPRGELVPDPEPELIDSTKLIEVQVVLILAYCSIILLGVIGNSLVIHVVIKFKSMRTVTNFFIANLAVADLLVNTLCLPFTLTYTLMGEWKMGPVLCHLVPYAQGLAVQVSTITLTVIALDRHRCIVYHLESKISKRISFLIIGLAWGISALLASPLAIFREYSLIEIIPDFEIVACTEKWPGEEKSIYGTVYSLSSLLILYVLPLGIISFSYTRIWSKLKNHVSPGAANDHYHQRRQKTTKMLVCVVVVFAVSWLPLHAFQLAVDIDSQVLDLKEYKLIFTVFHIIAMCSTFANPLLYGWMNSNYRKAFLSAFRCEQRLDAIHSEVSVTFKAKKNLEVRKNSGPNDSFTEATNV

human Y2R [2] = target: T1, human Y2R; assay: biochemical; assay type: biochemical
male C57BL/6J mice = assay: Food intake assay, bolus ip administration in lean mice; assay type: in vivo, mouse; conditions: 3 h after administration, vs saline, mean ± SD
[3] = Stability in 20% mouse serum/PBS; assay type: in vitro ADME; conditions: for remaining at 0.5 h: mouse, 20% mouse serum in PBS

Compound | IC50 (human Y2R [1]) [nM] | EC50 (human Y2R [2]) [nM] | % food intake inhibition (male C57BL/6J mice; bolus ip 1000 nmol/kg) [%] | remaining at 0.5 h [3] [%] | % food intake inhibition (male C57BL/6J mice; bolus ip 500 nmol/kg) [%] | % food intake inhibition (male C57BL/6J mice; bolus ip 250 nmol/kg) [%] | % food intake inhibition (male C57BL/6J mice; bolus ip 2000 nmol/kg) [%] | metabolites in mouse serum ([3]; within 30 min in 20% mouse serum/PBS)
CC[C@H](C)[C@H](NC(=O)[C@H](CC1CCCCC1)NC(=O)[C@H](Cc1c[nH]cn1)NC(=O)[C@H](CCCNC(=N)N)NC(=O)c1ccccc1)C(=O)N[C@@H](CC(N)=O)C(=O)N[C@@H](Cc1c[nH]c2ccccc12)C(=O)N[C@@H](CCCCN)C(=O)N[C@H](C(=O)N[C@@H](CCCNC(=N)N)C(=O)N[C@@H](CCC(N)=O)C(=O)N[C@@H](CCCNC(=N)N)C(=O)N[C@@H](CC1CCCCC1)C(N)=O)[C@@H](C)O [Compound 12] (Bz-RH[Cha]INWKTRQR[Cha]-NH2) | 2.4 | 0.84 | 4 ± 13 | 51 | – | – | – | –
CC[C@H](C)[C@H](NC(=O)[C@H](CC1CCCCC1)NC(=O)[C@H](Cc1c[nH]cn1)NC(=O)[C@H](CCCNC(=N)N)NC(=O)c1ccccc1)C(=O)N[C@@H](CC(N)=O)C(=O)N[C@@H](CC(C)C)C(=O)N[C@@H](CC1CCCCC1)C(=O)N[C@H](C(=O)N[C@@H](CCCNC(=N)N)C(=O)N[C@@H](CCC(N)=O)C(=O)N[C@@H](CCCNC(=N)N)C(=O)N[C@@H](CC1CCCCC1)C(N)=O)[C@@H](C)O [Compound 8] (Bz-RH[Cha]INL[Cha]TRQR[Cha]-NH2) | 25 | 7.3 | 46 ± 8 | 114 | 17 ± 8 | – | – | –
CC[C@H](C)[C@H](NC(=O)[C@H](CC1CCCCC1)NC(=O)[C@H](Cc1c[nH]cn1)NC(=O)[C@H](CCCNC(=N)N)NC(=O)c1ccccc1)C(=O)N[C@@H](CC(N)=O)C(=O)N[C@@H](CC(C)C)C(=O)NC(C)(C)C(=O)N[C@H](C(=O)N[C@@H](CCCNC(=N)N)C(=O)N[C@@H](CCC(N)=O)C(=O)N[C@@H](CCCNC(=N)N)C(=O)N[C@@H](CC1CCCCC1)C(N)=O)[C@@H](C)O [Compound 10] (Bz-RH[Cha]INL[Aib]TRQR[Cha]-NH2) | 4.8 | 1.1 | 39 ± 3 | 94 | 8 ± 7 | 3 ± 4 | 60 ± 7 | –
CC[C@H](C)[C@H](NC(=O)[C@H](CC1CCCCC1)NC(=O)[C@H](Cc1c[nH]cn1)NC(=O)[C@H](CCCNC(=N)N)NC(=O)c1ccccc1)C(=O)N[C@@H](CC(N)=O)C(=O)N[C@@H](Cc1c[nH]c2ccccc12)C(=O)N[C@H](C(=O)N[C@H](C(=O)N[C@@H](CCCNC(=N)N)C(=O)N[C@@H](CCC(N)=O)C(=O)N[C@@H](CCCNC(=N)N)C(=O)N[C@@H](CC1CCCCC1)C(N)=O)[C@@H](C)O)[C@@H](C)CC [Compound 5] (Bz-RH[Cha]INWITRQR[Cha]-NH2) | 9.8 | 2.3 | 40 ± 2 | 93 | 8 ± 7 | 10 ± 4 | 65 ± 5 | –
CC[C@H](C)[C@H](NC(=O)[C@H](CC1CCCCC1)NC(=O)[C@H](Cc1c[nH]cn1)NC(=O)[C@H](CCCNC(=N)N)NC(=O)c1ccccc1)C(=O)N[C@@H](CC(N)=O)C(=O)N[C@@H](CC(C)C)C(=O)N[C@H](C(=O)N[C@H](C(=O)N[C@@H](CCCNC(=N)N)C(=O)N[C@@H](CCC(N)=O)C(=O)N[C@@H](CCCNC(=N)N)C(=O)N[C@@H](Cc1ccc(O)cc1)C(N)=O)[C@@H](C)O)[C@@H](C)CC [Compound 3] (Bz-RH[Cha]INLITRQRY-NH2) | 15 | 1.9 | 17 ± 7 | 10 | – | – | 39 ± 7 | –
CC[C@H](C)[C@H](NC(=O)[C@H](CC1CCCCC1)NC(=O)[C@H](Cc1c[nH]cn1)NC(=O)[C@H](CCCNC(=N)N)NC(=O)c1ccccc1)C(=O)N[C@@H](CC(N)=O)C(=O)N[C@@H](CC(C)C)C(=O)N[C@H](C(=O)N[C@H](C(=O)N[C@@H](CCCNC(=N)N)C(=O)N[C@@H](CCC(N)=O)C(=O)N[C@@H](CCCNC(=N)N)C(=O)N[C@@H](CC1CCCCC1)C(N)=O)[C@@H](C)O)[C@@H](C)CC [Compound 4] (Bz-RH[Cha]INLITRQR[Cha]-NH2) | 7.2 | 3.6 | 34 ± 6 | 102 | – | – | – | did not yield any apparent metabolites
CC[C@H](C)[C@H](NC(=O)[C@H](CC1CCCCC1)NC(=O)[C@H](Cc1c[nH]cn1)NC(=O)[C@H](CCCNC(=N)N)NC(=O)c1ccccc1)C(=O)N[C@@H](CC(N)=O)C(=O)N[C@@H](Cc1ccc(F)cc1)C(=O)N[C@H](C(=O)N[C@H](C(=O)N[C@@H](CCCNC(=N)N)C(=O)N[C@@H](CCC(N)=O)C(=O)N[C@@H](CCCNC(=N)N)C(=O)N[C@@H](CC1CCCCC1)C(N)=O)[C@@H](C)O)[C@@H](C)CC [Compound 6] (Bz-RH[Cha]IN[Phe(4-F)]ITRQR[Cha]-NH2) | 11 | 2.9 | 40 ± 5 | 96 | 18 ± 5 | – | – | –
CC(C)C[C@H](NC(=O)[C@H](CC(N)=O)NC(=O)[C@H](CC1CCCCC1)NC(=O)[C@H](CC1CCCCC1)NC(=O)[C@H](Cc1c[nH]cn1)NC(=O)[C@H](CCCNC(=N)N)NC(=O)C(C)C)C(=O)NC(C)(C)C(=O)N[C@H](C(=O)N[C@@H](CCCNC(=N)N)C(=O)N[C@@H](CCC(N)=O)C(=O)N[C@@H](CCCNC(=N)N)C(=O)N[C@@H](CC1CCCCC1)C(N)=O)[C@@H](C)O [Compound 23] (Isobutyryl-RH[Cha][Cha]NL[Aib]TRQR[Cha]-NH2) | 3.1 | 1.2 | – | – | 20 ± 11 | 14 ± 7 | – | –
CC[C@H](C)[C@H](NC(=O)[C@H](Cc1c[nH]c2ccccc12)NC(=O)[C@H](CC(N)=O)NC(=O)[C@H](CC1CCCCC1)NC(=O)[C@H](CC1CCCCC1)NC(=O)[C@H](Cc1c[nH]cn1)NC(=O)[C@H](CCCNC(=N)N)NC(=O)C1CCCCC1)C(=O)N[C@H](C(=O)N[C@@H](CCCNC(=N)N)C(=O)N[C@@H](CCC(N)=O)C(=O)N[C@@H](CCCNC(=N)N)C(=O)N[C@@H](CC1CCCCC1)C(N)=O)[C@@H](C)O [Compound 14] (Cyclohexanecarbonyl-RH[Cha][Cha]NWITRQR[Cha]-NH2) | 15 | 11 | – | – | 23 ± 7 | – | – | –
CCCC[C@H](NC(=O)[C@H](CC(C)C)NC(=O)[C@H](CC(N)=O)NC(=O)[C@@H](NC(=O)[C@H](CC1CCCCC1)NC(=O)[C@H](Cc1c[nH]cn1)NC(=O)[C@H](CCCNC(=N)N)NC(=O)c1ccccc1)[C@@H](C)CC)C(=O)N[C@H](C(=O)N[C@@H](CCCNC(=N)N)C(=O)N[C@@H](CCC(N)=O)C(=O)N[C@@H](CCCNC(=N)N)C(=O)N[C@@H](CC1CCCCC1)C(N)=O)[C@@H](C)O [Compound 7] (Bz-RH[Cha]INL[Nle]TRQR[Cha]-NH2) | 13 | 2.4 | 12 ± 5 | – | – | – | – | –
CC(C)C[C@H](NC(=O)[C@H](CC(N)=O)NC(=O)[C@H](Cc1ccc2ccccc2c1)NC(=O)[C@H](CC1CCCCC1)NC(=O)[C@H](Cc1c[nH]cn1)NC(=O)[C@H](CCCNC(=N)N)NC(=O)c1ccccc1)C(=O)NC(C)(C)C(=O)N[C@H](C(=O)N[C@@H](CCCNC(=N)N)C(=O)N[C@@H](CCC(N)=O)C(=O)N[C@@H](CCCNC(=N)N)C(=O)N[C@@H](CC1CCCCC1)C(N)=O)[C@@H](C)O [Compound 20] (Bz-RH[Cha][2Nal]NL[Aib]TRQR[Cha]-NH2) | 29 | 7.5 | – | – | 18 ± 2 | – | – | –
CC[C@H](C)[C@H](NC(=O)[C@H](CC1CCCCC1)NC(=O)[C@H](Cc1c[nH]cn1)NC(=O)[C@H](CCCNC(=N)N)NC(=O)C1CCCCC1)C(=O)N[C@@H](CC(N)=O)C(=O)N[C@@H](Cc1c[nH]c2ccccc12)C(=O)N[C@H](C(=O)N[C@H](C(=O)N[C@@H](CCCNC(=N)N)C(=O)N[C@@H](CCC(N)=O)C(=O)N[C@@H](CCCNC(=N)N)C(=O)N[C@@H](CC1CCCCC1)C(N)=O)[C@@H](C)O)[C@@H](C)CC [Compound 13] (Cyclohexanecarbonyl-RH[Cha]INWITRQR[Cha]-NH2) | 6.8 | 1.7 | – | – | 8 ± 6 | – | – | –
C[C@@H](O)[C@H](NC(=O)C(C)(C)NC(=O)[C@H](Cc1ccc(F)cc1)NC(=O)[C@H](CC(N)=O)NC(=O)[C@H](CC1CCCCC1)NC(=O)[C@H](CC1CCCCC1)NC(=O)[C@H](Cc1c[nH]cn1)NC(=O)[C@H](CCCNC(=N)N)NC(=O)C1CCCCC1)C(=O)N[C@@H](CCCNC(=N)N)C(=O)N[C@@H](CCC(N)=O)C(=O)N[C@@H](CCCNC(=N)N)C(=O)N[C@@H](CC1CCCCC1)C(N)=O [Compound 28] (Cyclohexanecarbonyl-RH[Cha][Cha]N[Phe(4-F)][Aib]TRQR[Cha]-NH2) | 31 | 7.2 | – | – | 21 ± 7 | – | – | –

— PMC6044503 (ACS Omega, 2017)
